US20250250232A1, “AZETIDINE DERIVATIVES AND USE THEREOF AS DIPEPTIDYL PEPTIDASE 1 INHIBITORS” (CHIESI FARMACEUTICI S.P.A., priority 2022, published 2025)

Key:
[1] = molecular target: T1, human DPP1 enzyme (Homo sapiens (Human), UniProt P53634); conditions: values from K Doyle, J. Med. Chem. 2016, Table 3; cited from earlier work
[2] = molecular target: T1, human DPP1 enzyme; test: Activity on human recombinant DPP1 isolated enzyme assay (H-Gly-Arg-AMC cleavage, fluorescence); format: biochemical; conditions: 0.35 nM human DPP1, 300 μM H-Gly-Arg-AMC, 30 min pre-incubation at 25° C., pH 5.0; for IC50: read-out: h DPP1 pIC50 (converted)
Method: Human DPP1 enzyme activity was determined by measuring release of the fluorophore aminomethyl coumarin (AMC) following enzymatic cleavage of the dipeptide substrate H-Gly-Arg-AMC. Assays were performed in black 384 well plates in 25 mM piperazine buffer, pH 5.0, containing 50 mM NaCl, 0.01% (v/v) Triton X100, 5 mM DTT with 0.35 nM human DPP1 enzyme, 300 μM H-Gly-Arg-AMC substrate (˜Km concentration) and test compounds at 0.51-10000 nM concentration range. Human DPP1 was pre-incubated with test compounds for 30 minutes at 25° C. prior to substrate incubation for a further 40 minutes at 25° C. Enzyme activity was determined by measuring fluorescence of the AMC product at excitation and emission wavelengths of 380 nm and 460 nm using a BMG LABTECH PHERA star plate reader. Test compound potencies are reported in Table 15 as pIC50 values generated from 4-parameter sigmoidal curve fitting of the measured concentration-inhibition responses.

T1 sequence (P53634 231-394): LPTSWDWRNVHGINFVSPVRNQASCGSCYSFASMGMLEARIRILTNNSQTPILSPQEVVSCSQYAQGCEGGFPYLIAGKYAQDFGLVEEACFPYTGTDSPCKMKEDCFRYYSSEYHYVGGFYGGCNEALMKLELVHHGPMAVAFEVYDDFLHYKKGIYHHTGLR
T1 sequence (P53634 25-134): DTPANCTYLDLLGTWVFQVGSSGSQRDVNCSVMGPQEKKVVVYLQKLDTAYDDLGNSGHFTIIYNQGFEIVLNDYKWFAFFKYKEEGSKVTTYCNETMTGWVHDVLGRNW
T1 sequence (P53634 395-463): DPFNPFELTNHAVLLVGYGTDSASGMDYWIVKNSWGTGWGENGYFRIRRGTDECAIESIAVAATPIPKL

Row | IC50 [2] [nM] | Compound | also measured
1 | 10 to 100 | COC1(C(=O)N[C@H](C#N)Cc2ccc(-c3ccc4c(c3)N(C)C(=O)C4)cc2)CNC1 [Example 22, (S)-N-(1-cyano-2-(4-(1-methyl-2-oxoindolin-6-yl)phenyl)ethyl)-3-methoxyazetidine-3-carboxamide] | –
2 | 100 to 1000 | COC1(C(=O)NC(C#N)Cc2ncc(-c3ccc(C#N)cc3)cc2F)CNC1 (stereo not drawn) [Example 42, N-(1-cyano-2-(5-(4-cyanophenyl)-3-fluoropyridin-2-yl)ethyl)-3-methoxyazetidine-3-carboxamide] | –
3 | 100 to 1000 | N#Cc1ccc(-c2ccc(C[C@@H](C#N)NC(=O)C3(F)CNC3)cc2)cc1 [Example 2, (S)-N-(1-cyano-2-(4′-cyano-[1,1′-biphenyl]-4-yl)ethyl)-3-fluoroazetidine-3-carboxamide] | –
4 | 10 to 100 | COC1(C(=O)NC(C#N)Cc2ncc(-c3ccc(C#N)cc3)cc2F)CN(C)C1 (racemic) [Example 43, N-(1-cyano-2-(5-(4-cyanophenyl)-3-fluoropyridin-2-yl)ethyl)-3-methoxy-1-methylazetidine-3-carboxamide] | –
5 | 10 to 100 | N#Cc1ccc(-c2ccc(C[C@@H](C#N)NC(=O)C3(CF)CNC3)cc2)cc1 [Example 8, (S)-N-(1-cyano-2-(4′-cyano-[1,1′-biphenyl]-4-yl)ethyl)-3-(fluoromethyl)azetidine-3-carboxamide] | –
6 | 10 to 100 | COC1(C(=O)NC(C#N)Cc2ncc(-c3ccc(C#N)cc3)cc2F)CN(C)C1 (single isomer, unassigned; enantiomer 1) [Example 44, enantiomer 1 of N-(1-cyano-2-(5-(4-cyanophenyl)-3-fluoropyridin-2-yl)ethyl)-3-methoxy-1-methylazetidine-3-carboxamide] | –
7 | 1000 to 10000 | CC(C)OC1(C(=O)N[C@H](C#N)Cc2ccc(-c3ccc(C#N)cc3)cc2)CNC1 [Example 26, (S)-N-(1-cyano-2-(4′-cyano-[1,1′-biphenyl]-4-yl)ethyl)-3-isopropoxyazetidine-3-carboxamide] | –
8 | 10 to 100 | CCOC1(C(=O)N[C@H](C#N)Cc2ccc(-c3ccc(C#N)cc3)cc2)CNC1 [Example 11, (S)-N-(1-cyano-2-(4′-cyano-[1,1′-biphenyl]-4-yl)ethyl)-3-ethoxyazetidine-3-carboxamide] | –
9 | 100 to 1000 | N#Cc1ccc(-c2ccc(C[C@@H](C#N)NC(=O)C3(O)CNC3)cc2)cc1 [Example 1, (S)-N-(1-cyano-2-(4′-cyano-[1,1′-biphenyl]-4-yl)ethyl)-3-hydroxyazetidine-3-carboxamide] | –

Second part, the compound before the results:

Row | Compound | IC50 [2] [nM] | also measured
10 | N#C[C@H](Cc1ccc(-c2ccc3c(c2)C2(CCN(C4COC4)CC2)OC3)cc1F)NC(=O)C1(C(F)F)CNC1 [compound 15, (S)-N-(1-cyano-2-(2-fluoro-4-(1′-(oxetan-3-yl)-3H-spiro[isobenzofuran-1,4′-piperidin]-6-yl)phenyl)ethyl)-3-(difluoromethyl)azetidine-3-carboxamide] | – | pIC50 in the human recombinant DPP1 isolated enzyme assay (state of the art) [1]: less than 5
11 | COC1(C(=O)N[C@H](C#N)Cc2ccc(-c3ccc(C#N)cc3)cc2)CNC1C (stereo partly drawn) [Example 31, N-((S)-1-cyano-2-(4′-cyano-[1,1′-biphenyl]-4-yl)ethyl)-3-methoxy-2-methylazetidine-3-carboxamide] | 100 to 1000 | –
12 | CN1C(=O)Cc2ccc(-c3ccc(C[C@@H](C#N)NC(=O)C4(C(F)F)CNC4)c(F)c3)cc21 [compound 16, (S)-N-(1-cyano-2-(2-fluoro-4-(1-methyl-2-oxoindolin-6-yl)phenyl)ethyl)-3-(difluoromethyl)azetidine-3-carboxamide] | – | pIC50 in the human recombinant DPP1 isolated enzyme assay (state of the art) [1]: 5.9
13 | CN1C(=O)Cc2ccc(-c3ccc(C[C@@H](C#N)NC(=O)C4(C(F)F)CNC4)c(F)c3)cc21 [Example 16, (S)-N-(1-cyano-2-(2-fluoro-4-(1-methyl-2-oxoindolin-6-yl)phenyl)ethyl)-3-(difluoromethyl)azetidine-3-carboxamide] | – | h DPP1 pIC50 [2]: ++++ (h DPP1 pIC50 higher than 8)
14 | N#Cc1ccc(-c2ccc(C[C@@H](C#N)NC(=O)C3CN(C4COC4)C3)cc2)cc1 [Example 23, (S)-N-(1-cyano-2-(4′-cyano-[1,1′-biphenyl]-4-yl)ethyl)-1-(oxetan-3-yl)azetidine-3-carboxamide] | 1000 to 10000 | –
15 | CC1(C)NCC1C(=O)N[C@H](C#N)Cc1ccc(-c2ccc(C#N)cc2)cc1 (stereo partly drawn) [Example 4, N-((S)-1-cyano-2-(4′-cyano-[1,1′-biphenyl]-4-yl)ethyl)-2,2-dimethylazetidine-3-carboxamide] | 1000 to 10000 | –
16 | Cn1c(=O)oc2ccc(-c3ccc(C[C@@H](C#N)NC(=O)C4(C(F)F)CNC4)cc3)cc21 [compound 14, (S)-N-(1-cyano-2-(4-(3-methyl-2-oxo-2,3-dihydrobenzo[d]oxazol-5-yl)phenyl)ethyl)-3-(difluoromethyl)azetidine-3-carboxamide] | – | pIC50 in the human recombinant DPP1 isolated enzyme assay (state of the art) [1]: less than 5
17 | CN1CC(O)(C(=O)N[C@H](C#N)Cc2ccc(-c3ccc(C#N)cc3)cc2)C1 [Example 38, (S)-N-(1-cyano-2-(4′-cyano-[1,1′-biphenyl]-4-yl)ethyl)-3-hydroxy-1-methylazetidine-3-carboxamide] | 10 to 100 | –
18 | COC1(C(=O)N[C@H](C#N)Cc2ccc(-c3ccc(C#N)cc3)cc2F)CN(C)C1 [Example 41, (S)-N-(1-cyano-2-(4′-cyano-3-fluoro-[1,1′-biphenyl]-4-yl)ethyl)-3-methoxy-1-methylazetidine-3-carboxamide] | – | h DPP1 pIC50 [2]: ++++ (h DPP1 pIC50 higher than 8)
